Assay results from article PMC6925260 (Nature Communications, 2019).
Where two headings read alike, the source gives them in different places.

Assays:
[1] = tested on: PPARγ LBD, deletion of helix 12 / SMRT peptide; assay: Fluorescence anisotropy, SMRT peptide to helix 12 deleted (DH12) PPARγ LBD; type: binding
Description: (§1) These samples were then plated as usual.

[2] = molecular target: T1, PPARγC313A,Q322C-BTFA LBD / MED1 peptide (Homo sapiens, UniProt P37231, C313A/Q322C); assay: Fluorescence anisotropy, MED1 peptide to PPARγC313A,Q322C-BTFA LBD; type: binding; details: Supp. Table 2
T1 construct: 6× His tag with TEV recognition site (N, cleaved yes); made in house; host or cells: E. coli BL21 (DE3) gold
Description: as §1

wt PPARg LBD = assay: Supplementary Figure 11: fluorescence anisotropy dissociation constants, wt PPARγ LBD (peptide not given); type: binding
PPARγ = details: Supp. Table 9 summary; comparator apo/vehicle; ref 1,4 (supplement); cited from earlier work
PPARg LBD N340A = assay: Supplementary Figure 11: fluorescence anisotropy dissociation constants, N340A (peptide not given)
PPARg LBD DH12 = assay: Supplementary Figure 11: fluorescence anisotropy dissociation constants, DH12 (peptide not given); type: binding
[3] = molecular target: T2, PPARγC313A,Q322C-BTFA LBD / NCoR peptide (Homo sapiens, UniProt P37231, C313A/Q322C); assay: Fluorescence anisotropy, NCoR peptide to PPARγC313A,Q322C-BTFA LBD; type: binding; details: Supp. Table 2
T2 construct: 6× His tag with TEV recognition site (N, cleaved yes); made in house; host or cells: E. coli BL21 (DE3) gold
T2 sequence (P37231 230-505 C313A/Q322C): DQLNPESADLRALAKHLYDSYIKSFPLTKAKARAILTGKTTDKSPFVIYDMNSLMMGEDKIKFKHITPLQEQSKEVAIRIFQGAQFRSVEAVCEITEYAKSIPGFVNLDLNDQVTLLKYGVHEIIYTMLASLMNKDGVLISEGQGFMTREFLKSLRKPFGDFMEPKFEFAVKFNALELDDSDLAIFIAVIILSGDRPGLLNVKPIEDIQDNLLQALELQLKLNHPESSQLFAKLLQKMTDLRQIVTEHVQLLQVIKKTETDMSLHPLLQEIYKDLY
Description: as §1

K329A PPARg LBD = assay: Supplementary Figure 11: fluorescence anisotropy dissociation constants, K329A (peptide not given)
[4] = data set FP 3 15 18 Inverse agonism part 2, read-out: dissociation constant
[5] = read-out: dissociation constant, data set FP 3 15 18 Inverse agonism part 2

O=C(Nc1ccccc1)c1cc([N+](=O)[O-])ccc1Cl [GW9662]
SMRT Kd, wt vs DH12 mean difference ± SE ([1]; Supp. Fig. 12): 314 ±631 | Kd ([1]; Supp. Fig. 12, read-out: SMRT dissociation constant average, DH12): 320 nM | Kd ([1]; run SMRT FP 4 5 18, read-out: SMRT dissociation constant, DH12): 361 nM | Kd ([1]; run SMRT FP 4 6 18, read-out: SMRT dissociation constant, DH12): 301 nM | Kd ([1]; run SMRT FP 4 10 18, read-out: SMRT dissociation constant, DH12): 298 nM | MED1 fold change (labeled/wt), PPARγC313A,Q322C-BTFA [2]: 2.3 | Kd ([2]; read-out: MED1 Kd, PPARγC313A,Q322C-BTFA, covalent ligands T0070907, GW9662 expected to be apo-like): 9750 nM | Kd (wt PPARg LBD; average of the listed data sets, read-out: dissociation constant, Average wt values): 255 nM | Kd (wt PPARg LBD; data set 2 28 18 FP inverse agonism, read-out: dissociation constant): 242 nM | Kd (wt PPARg LBD; [4]): 269 nM | Kd (wt PPARg LBD; data set FP K329A K347A 3 20 18, read-out: dissociation constant): 254 nM | effect on reporter expression in cells (PPARγ): no effect | Kd (PPARg LBD N340A; read-out: dissociation constant, Average N340A values, average of the listed data sets): 485 nM | Kd (PPARg LBD N340A; [5]): 342 nM | Kd (PPARg LBD N340A; read-out: dissociation constant, data set PPARg LBD N340A 12 11 17): 628 nM | Kd (PPARg LBD DH12; data set 6-23-17, read-out: dissociation constant): 66.2 nM | Kd (PPARg LBD DH12; data set 6-26-17 FP, read-out: dissociation constant): 155 nM | Kd (PPARg LBD DH12; [4]): 27.1 nM | Kd (PPARg LBD DH12; data set PPARg LBD DH12 9-26-17, read-out: dissociation constant): 145 nM | Kd (PPARg LBD DH12; data set PPARg LBD DH12 10-24-17, read-out: dissociation constant): 73.1 nM | NCoR fold change (labeled/wt), PPARγC313A,Q322C-BTFA [3]: 1.3 | Kd ([3]; read-out: NCoR Kd, PPARγC313A,Q322C-BTFA, covalent ligands T0070907, GW9662 expected to be apo-like): 348 nM | Kd mutant/Kd wt (K329A PPARg LBD; ratio of averages): 7.158 | Kd (K329A PPARg LBD; read-out: dissociation constant, Average K329A values, average of the listed data sets): 1820 nM | Kd (K329A PPARg LBD; [5]): 1800 nM | Kd (K329A PPARg LBD; read-out: dissociation constant, data set FP K329A K347A 3 20 18): 1850 nM
